The record followed here is ChEMBL document CHEMBL5107958, “Phosphoramidate Prodrugs Continue to Deliver, The Journey of Remdesivir (GS-5734) from RSV to SARS-CoV-2” (ACS Med Chem Lett, 2022).

Molecules are shown by their SMILES.

Assay [1] relates to SARS-CoV-2. In words: Potency index, ratio of EC50 of GS-441524 to EC50 of test compound for antiviral activity against SARS-CoV-2 infected in HAEC cells assessed as reduction in viral replication incubated for 1.5 hrs followed by virus removal upto 24 hrs and subsequent replacement of medium containing compound by RT-qPCR analysis. The settings on record: time <= 25.5 hrs. The format is functional, Severe acute respiratory syndrome coronavirus 2. (Quantitative PCR measures a nucleic acid by following its amplification.)

Assay [2] concerns SARS-CoV-2. In words: Antiviral activity against SARS-CoV-2 infected in HAEC cells assessed as reduction in viral replication incubated for 1.5 hrs followed by virus removal upto 24 hrs and subsequent replacement of medium containing compound by RT-qPCR analysis. To be noted: Severe acute respiratory syndrome coronavirus 2, HAEC. The format is functional, organism-based.

For orientation: EC50 means the concentration needed to bring the measured effect to its halfway point.

Take `CCC(CC)OC(=O)[C@H](C)N[P@](=O)(OC[C@H]1O[C@@](C#N)(c2ccc3c(N)ncnn23)[C@H](O)[C@@H]1O)Oc1ccccc1`: the Ratio in the assay on SARS-CoV-2 [1] is 11. For the same compound, in the assay on SARS-CoV-2 [2], the EC50 worked out at 48 nM.
As for `N#C[C@@]1(c2ccc3c(N)ncnn23)O[C@H](CO)[C@@H](O)[C@H]1O` [GS-441524], in the assay with SARS-CoV-2 [2], the EC50 is 510 nM.
